Experimental data published in patent US20110046223A1, “TREATMENT OF NEUROFIBROMATOSIS” (RAMOT AT TEL-AVIV UNIVERSITY LTD., priority 2006, published 2011).

Test system: phospho-Akt
Experiment: steady-state phospho-Akt, Western immunoblotting
Format: cell-based, human
Experimental: Unless otherwise indicated, cells were lysed 48 hours after being treated with lysis buffer, as described in Haklai, et al., supra. […] Protein bands were visualized by ECL and quantified by densitometry with Image Master VDS-CL (Amersham) using TINA 2.0 software (Ray Tests). To obtain reliable comparisons between replicated experiments for statistical analysis, a standardization procedure was used, in which the density of each given protein band as recorded with its specific Ab, was normalized. […] The standard average density was defined as 1.0, and each of the individually determined bands was related to this value. […] Actin cytoskeletal elements were labeled with rhodamine-phalloidin, and digital fluorescence images were collected on a Zeiss LSM 510 confocal microscope fitted with fluorescein and rhodamine filters, as described in Gana-Weisz, M., et al., supra.
Next, to determine whether down-regulation of active Ras by FTS was accompanied by inhibition of Ras signaling, the effect of FTS on steady-state levels of phospho-ERK, phospho-Akt, and RalA-GTP as read-outs of the three prominent Ras pathways, Ras/Raf/MEK/ERK, Ras/PI3K/Akt, and Ras/RalGEF/RalA, respectively, was examined. […]

CC(C)=CCC/C(C)=C/CC/C(C)=C/CSc1ccccc1C(=O)O [FTS, S-farnesylthiosalicylic acid]
steady-state phospho-Akt (all NF-1 cell lines): significant reduction
increase in phosphor-Akt (non-NF-1 STS26T cells, steady state): 10%-20%
